According to PubChem BioAssay AID1963961 (Molecular Pharmacology Branch, DTP, NCI, 2024):

Test system: K98450-129-R-PDC multicell spheroids, viability
Test: Anticancer human tumor K98450-129-R-PDC patient-derived colon adenocarcinoma cell line growth inhibition [PI3K]
Settings: for IC50: curve of first compound; for viability, T/C: stronger effect = lower value; active means viability on the fitted dose curve at most 10% of control; inactive means the rest
Method in brief: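 Combination activity was assessed by viability in multicellular tumor spheroids carrying HUVEC and MSC components. Agents were tested with PI3K inhibitors from a Cmax-based top dose (or 10 microM) downward in half-log increments.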

[1] = second compound 0.0316 µM, first compound 0.0316 µM
[2] = second compound 0.0316 µM, first compound 0.1 µM
[3] = second compound 0.0316 µM, first compound 0.316 µM
[4] = second compound 0.0316 µM, first compound 1 µM
[5] = second compound 0.0316 µM, first compound 3.16 µM
[6] = second compound 0.0316 µM, first compound 10 µM
[7] = second compound 0.1 µM, first compound 0.0316 µM
[8] = second compound 0.1 µM, first compound 0.1 µM
[9] = second compound 0.1 µM, first compound 0.316 µM
[10] = second compound 0.1 µM, first compound 1 µM
[11] = second compound 0.1 µM, first compound 3.16 µM
[12] = second compound 0.1 µM, first compound 10 µM
[13] = second compound 0.316 µM, first compound 0.0316 µM
[14] = second compound 0.316 µM, first compound 0.1 µM
[15] = second compound 0.316 µM, first compound 0.316 µM
[16] = second compound 0.316 µM, first compound 1 µM
[17] = second compound 0.316 µM, first compound 3.16 µM
[18] = second compound 0.316 µM, first compound 10 µM
[19] = second compound 1 µM, first compound 0.0316 µM
[20] = second compound 1 µM, first compound 0.1 µM
[21] = second compound 1 µM, first compound 0.316 µM
[22] = second compound 1 µM, first compound 1 µM
[23] = second compound 1 µM, first compound 3.16 µM
[24] = second compound 1 µM, first compound 10 µM
[25] = second compound 3.16 µM, first compound 0.0316 µM
[26] = second compound 3.16 µM, first compound 0.1 µM
[27] = second compound 3.16 µM, first compound 0.316 µM
[28] = second compound 3.16 µM, first compound 1 µM
[29] = second compound 3.16 µM, first compound 3.16 µM
[30] = second compound 3.16 µM, first compound 10 µM
[31] = second compound 10 µM, first compound 0.0316 µM
[32] = second compound 10 µM, first compound 0.1 µM
[33] = second compound 10 µM, first compound 0.316 µM
[34] = second compound 10 µM, first compound 1 µM
[35] = second compound 10 µM, first compound 3.16 µM
[36] = second compound 10 µM, first compound 10 µM
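Further: spheroids exposed to agents for seven days before read-out.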

Cn1ncc(Cl)c1-c1cc(C(=O)NC(CN)Cc2cccc(F)c2)sc1Cl (stereo unspecified) + CC(Nc1ncnc2nc[nH]c12)c1cc2cccc(Cl)c2c(=O)n1-c1ccccc1
inactive: viability, T/C [1] 88.4% | viability, T/C [2] 105% | viability, T/C [3] 102% | viability, T/C [4] 93.8% | viability, T/C [5] 98.1% | viability, T/C [6] 56.9% | viability, T/C [7] 107% | viability, T/C [8] 85% | viability, T/C [9] 96% | viability, T/C [10] 92.6% | viability, T/C [11] 98.1% | viability, T/C [12] 59.8% | viability, T/C [13] 110% | viability, T/C [14] 106% | viability, T/C [15] 92.4% | viability, T/C [16] 101% | viability, T/C [17] 99% | viability, T/C [18] 61.5% | viability, T/C [19] 95.7% | viability, T/C [20] 110% | viability, T/C [21] 101% | viability, T/C [22] 80.8% | viability, T/C [23] 96.6% | viability, T/C [24] 61.2% | viability, T/C [25] 87.3% | viability, T/C [26] 94.5% | viability, T/C [27] 106% | viability, T/C [28] 96.9% | viability, T/C [29] 97% | viability, T/C [30] 48.4% | viability, T/C [31] 85.1% | viability, T/C [32] 86.1% | viability, T/C [33] 87% | viability, T/C [34] 94.9% | viability, T/C [35] 89.8% | viability, T/C [36] 43.7%
> 10 µM: IC50 (second compound 0.0316 µM) | IC50 (second compound 0.1 µM) | IC50 (second compound 0.316 µM) | IC50 (second compound 1 µM)
8.5 µM: IC50 (second compound 10 µM)
9.63 µM: IC50 (second compound 3.16 µM)

Cn1nccc1Nc1nccc(-c2ccn(C(CO)c3ccc(Cl)c(F)c3)c(=O)c2)n1 (stereo unspecified) + CC(Nc1ncnc2nc[nH]c12)c1cc2cccc(Cl)c2c(=O)n1-c1ccccc1
inactive: viability, T/C [1] 110% | viability, T/C [2] 102% | viability, T/C [3] 103% | viability, T/C [4] 94.5% | viability, T/C [5] 88.9% | viability, T/C [6] 85.8% | viability, T/C [7] 106% | viability, T/C [8] 100% | viability, T/C [9] 91.3% | viability, T/C [10] 93.5% | viability, T/C [11] 94.6% | viability, T/C [12] 87% | viability, T/C [13] 94.5% | viability, T/C [14] 115% | viability, T/C [15] 91.6% | viability, T/C [16] 92.7% | viability, T/C [17] 96.6% | viability, T/C [18] 56.8% | viability, T/C [19] 89.5% | viability, T/C [20] 103% | viability, T/C [21] 94.6% | viability, T/C [22] 85.4% | viability, T/C [23] 94% | viability, T/C [24] 81.4% | viability, T/C [25] 79.2% | viability, T/C [26] 86.2% | viability, T/C [27] 95% | viability, T/C [28] 93.8% | viability, T/C [29] 106% | viability, T/C [30] 84.6% | viability, T/C [31] 90% | viability, T/C [32] 80% | viability, T/C [33] 78.9% | viability, T/C [34] 87.2% | viability, T/C [35] 80.7% | viability, T/C [36] 66.3%
> 10 µM: IC50 (second compound 0.0316 µM) | IC50 (second compound 0.1 µM) | IC50 (second compound 0.316 µM) | IC50 (second compound 1 µM) | IC50 (second compound 3.16 µM) | IC50 (second compound 10 µM)

Cn1ncnc1[C@H]1c2n[nH]c(=O)c3cc(F)cc(c23)N[C@@H]1c1ccc(F)cc1 + CC(Nc1ncnc2nc[nH]c12)c1cc2cccc(Cl)c2c(=O)n1-c1ccccc1
> 0.1 µM: IC50 (second compound 0.0316 µM) | IC50 (second compound 0.1 µM) | IC50 (second compound 0.316 µM) | IC50 (second compound 1 µM) | IC50 (second compound 3.16 µM) | IC50 (second compound 10 µM)
inactive: viability, T/C (second compound 0.0316 µM, first compound 0.000316 µM) 108% | viability, T/C (second compound 0.0316 µM, first compound 0.001 µM) 118% | viability, T/C (second compound 0.0316 µM, first compound 0.00316 µM) 111% | viability, T/C (second compound 0.0316 µM, first compound 0.01 µM) 111% | viability, T/C [1] 97.9% | viability, T/C [2] 87.2% | viability, T/C (second compound 0.1 µM, first compound 0.000316 µM) 110% | viability, T/C (second compound 0.1 µM, first compound 0.001 µM) 106% | viability, T/C (second compound 0.1 µM, first compound 0.00316 µM) 97.5% | viability, T/C (second compound 0.1 µM, first compound 0.01 µM) 107% | viability, T/C [7] 104% | viability, T/C [8] 114% | viability, T/C (second compound 0.316 µM, first compound 0.000316 µM) 109% | viability, T/C (second compound 0.316 µM, first compound 0.001 µM) 97.5% | viability, T/C (second compound 0.316 µM, first compound 0.00316 µM) 112% | viability, T/C (second compound 0.316 µM, first compound 0.01 µM) 98.3% | viability, T/C [13] 108% | viability, T/C [14] 85.5% | viability, T/C (second compound 1 µM, first compound 0.000316 µM) 100% | viability, T/C (second compound 1 µM, first compound 0.001 µM) 97.5% | viability, T/C (second compound 1 µM, first compound 0.00316 µM) 93.8% | viability, T/C (second compound 1 µM, first compound 0.01 µM) 83.6% | viability, T/C [19] 94.5% | viability, T/C [20] 95.8% | viability, T/C (second compound 3.16 µM, first compound 0.000316 µM) 103% | viability, T/C (second compound 3.16 µM, first compound 0.001 µM) 100% | viability, T/C (second compound 3.16 µM, first compound 0.00316 µM) 99.3% | viability, T/C (second compound 3.16 µM, first compound 0.01 µM) 104% | viability, T/C [25] 102% | viability, T/C [26] 88% | viability, T/C (second compound 10 µM, first compound 0.000316 µM) 86.5% | viability, T/C (second compound 10 µM, first compound 0.001 µM) 120% | viability, T/C (second compound 10 µM, first compound 0.00316 µM) 88.2% | viability, T/C (second compound 10 µM, first compound 0.01 µM) 87.8% | viability, T/C [31] 98.3% | viability, T/C [32] 91.8%
